Columns and labels:
Assay type in all cases: in vivo
ICR mice [1] = test: Resetpine-induced mouse body temperature decrease experiment (Experiment 6)
From the text: 6.1 Experimental animals: ICR mice, male, 22.0±2 g of body weight, secondary, are provided by the Experimental Animal Science Department of Capital Medical University, Beijing.
6.2 Experiment pharmaceuticals: The pharmaceutical of Embodiment 3 is provided by Beijing Wonner Biotech. Ltd. Co., Paroxetine (Paxil) is the product of Zhong Mei Tianjin Smith Kline pharmaceuticals Co. Ltd., and Resetpine is the product of Guangdong BangMin Pharmaceutical Co., Ltd.
6.4 Dose designs: 1. High dose of Embodiment 3 (80 mg/kg/d); 2. middle dose of Embodiment 3 (40 mg/kg/d); and 3. low dose of Embodiment 3 (20 mg/kg/d).
6.5.1 Group division and administration of drug: The mice are grouped randomly, and 10 mice are in each group. 1. High dose of Embodiment 3 (80 mg/kg, P.O., administered for 7 days); 2. middle dose of Embodiment 3 (40 mg/kg, P.O., administered for 7 days); 3. low dose of Embodiment 3 (20 mg/kg, P.O., administered for 7 days); 4.
6.5.2 Experimental method: After 1 hour of the last administration of drug on the eighth day, the mouse's anal temperature is determined. […] After 4 hours of injecting Resetpine, the mouse's anal temperature is determined once again. […]
6.5.3 Statistic calculation: The experimental data are represented as X±SD, and the experimental result is calculated as ANOVA by SPSS 11.5 statistic software.

[2] = test system: rat olfactory bulb lesion model; test: Step through test (passive avoidance) of the rat olfactory bulb lesion model (Experiment 7); conditions: 2 mg/kg/d into the stomach, 24 days
Description: Olfactory bulb lesion model: Health Wistar male rats, secondary, 330±20 g of body weight, are purchased from Beijing Vital River Experimental Animal Technology Ltd. Co. (The quality certificate number: SCXK (JING) 2002-2003).
The above pharmaceuticals are prepared with 0.5% of sodium carboxymethylcellulose (CMC-Na) for feeding into the stomach. Benzylpenicillin sodium for injection is the product of North China Pharmaceutical Huasheng Co. Ltd. (Lot: S0511204), and norepinephrine (NE) and 5-hydrotryptamine (5-HT) standards are the products of Sigma Co. Other reagents are all marketed.
7.4.1 Group division and administration of drug: The rats are grouped randomly into 6 groups. 1. […]
7.5.2 Passive avoidance experiment (Step-through test): The step through box is configured by the light chamber and the dark chamber, and a channel is linked between the bright chamber and the dark chamber for mouse entrance and exit. […] The time that the rat enters into for the first time is recorded (electric-shocking latent period), and the time thereof is the learning record. […]
7.6 Statistic calculation: The experimental data are represented as X+SD, and the experimental result is calculated as ANOVA by SPSS 11.5 statistic software.

ICR mice [3] = test: Mouse tail-hanging experiment (Experiment 9)
Description: 9.1 Experiment pharmaceuticals: The pharmaceutical of Embodiment 5 is provided by Beijing Wonner Biotech. […] Above-mentioned pharmaceuticals are prepared with physiological saline for feeding into the stomach. 9.2 Experimental animals: ICR mice, male, 20.0±1 g of body weight, secondary, are provided by the Experimental Animal Science Department of Capital Medical University, Beijing. The quality certificate number of mice is SOCK (DING) 2006-2008. […] The pharmaceuticals are fed into mouse's stomach once every day. After 1 hour of the last administration of drug on the eighth day, the mouse's tail (1 cm to the tail end) is taped on the horizontal support in an opened box, and the mouse represents the reversed hung status. The mouse head is away from the bottom of the opened box for about 10 cm, and the mouse is hung up for 6 minutes. The time of non-movement of the mouse for the last 5 minutes is recorded. 9.5 Statistic calculation: The experimental data are represented as X±SD, and the experimental result is calculated as one-way ANOVA by SPSS 11.5 statistic software.

## Fc1ccc([C@@H]2CCNC[C@H]2COc2ccc3c(c2)OCO3)cc1 [Paroxetine]
ICR mice [1]; 3 mg/kg P.O. 7 days, 4 h after Resetpine 2 mg/kg i.p.
  Decreased temperature: 2.38 ± 0.69 °C
ICR mice [1]; high, middle and low doses of Embodiment 3, Paroxetine
  Effect on reduced body temperature induced by Resetpine (in words): decrease the reduced body temperature induced by Resetpine
[2]; learning record
  Latent period of the 1st day: 181.87 ± 90.54 s
[2]; memory record
  Latent period of the 2nd day: 265.00 ± 65.39 s
ICR mice [3]; 3 mg/kg/d into the stomach, 1 h after last dose on the eighth day, last 5 of 6 min
  Time of non-movement: 53.27 ± 20.02 s
ICR mice [3]; high, middle and low doses of Embodiment 5, Paroxetine
  Effect on accumulative time of non-movement, tail-hanging (in words): obviously decrease the accumulative time of non-movement

Source: patent publication US20100311674A1, “PHARMACEUTICAL COMPOSITIONS WITH A MECHANISM OF MULTI-TARGET RECEPTOR RETROACTION FOR TREATING DEPRESSION” (Yu-Fen Chi, priority 2007, published 2010)
